Experimental data as given in PubChem BioAssay AID1963875 (Molecular Pharmacology Branch, DTP, NCI, 2024).

System: KRAS-mutant PDC complex spheroid viability
Assay: Anticancer human tumor 186277-243-T-J2-PDC patient-derived colon adenocarcinoma cell line growth inhibition [KRAS2]
Conditions: for IC50: curve of first compound; for viability, T/C: stronger effect = lower value
Text: Multicellular complex tumor spheroid response to RAS pathway inhibitors in combination with a targeted agents in patient-derived cell lines with oncogenic KRAS variants from multiple cancer types
A high-throughput screen of multi-cell type tumor spheroids was designed to identify active combinations of targeted small molecules and KRAS pathway inhibitors. Complex spheroids include a stromal component modeled by human endothelial cells (HUVEC) and fibroblasts modeled by human mesenchymal stem cells (MSCs). The concentration ranges selected for each drug and investigational agent were based upon clinically achievable concentrations if the clinical Cmax of the agent was known.
Compounds. The drugs and investigational agents: BI-3406 (NSC825286), BAY-293 (NSC824723), batoprotafib (TNO155; NSC825523), sotorasib (AMG 510; NSC818433), MRTX1257 (NSC819558), elimusertib (BAY 1895344; NSC800525), molibresib (GSK525762; NSC774829), temuterkib (LY3214996; NSC803410), venetoclax (NSC766270), alisertib (NSC759677), olaparib (NSC753686), talazoparib (NSC767125), erdafitinib (NSC781556), ipatasertib (NSC767898), cabozantinib (NSC761068), nintedanib (NSC756659), abemaciclib (NSC768073), docetaxel (NSC628503), trametinib (NSC758246), and sapanisertib (NSC764658) were obtained from the National Cancer Institute (NCI) Developmental Therapeutics Program Chemical Repository. The FDA-approved anticancer drug set is available from the Developmental Therapeutics Program. […] The stock solutions were prepared in dimethyl sulfoxide (DMSO, Sigma-Aldrich, St. Louis, MO, cat. D2650) at 800-fold the tested concentration and stored at -70 degrees C prior to their use. All drugs and investigational agents were tested over a range starting from a high concentration at or near the clinical Cmax and decreasing in half-log increments. If the clinical Cmax for an agent had not been determined, the highest concentration tested was 10 microM.
Cell Culture. All cells were maintained in an incubator at 37 degrees C and 5% CO2 with 95% humidity. The PDC lines were cultured according to standard operating procedures established by the NCI PDMR (https://pdmr.cancer.gov/sops/default.htm). Briefly, all PDCs were thawed and cultured in Matrigel-coated flasks prepared with a working solution of 1X Ham's F-12 nutrient mix, without supplementation (Invitrogen, Waltham, MA, cat. 11765054), 100 U/mL penicillin-streptomycin (Invitrogen, cat. 15140122), and 2.5% Matrigel (Corning Inc., Corning, NY, cat. 354248) for the first three passages. All PDCs were cultured in complete DMEM/F-12 media containing advanced DMEM/F-12 (Invitrogen, cat. 12634028), 4.9% defined fetal bovine serum, heat inactivated (HyClone Laboratories Inc., Logan, UT, cat. SH30070.03HI), 389 ng/mL hydrocortisone (Sigma-Aldrich, cat. H4001), 9.7 ng/mL human EGF recombinant protein (Invitrogen, cat. PHG0313), 23.4 microg/mL adenine (Sigma-Aldrich, cat. A2786), 97.3 U/mL penicillin-streptomycin (Invitrogen, cat. 15140122), 1.9 mM L-glutamine (Invitrogen, cat. 25030081), and 9.7 microM Y-27632 dihydrochloride (Tocris Bioscience, Bristol, United Kingdom, cat. 1254). The PDCs were cultured in complete DMEM/F12 media without 9.7 microM Y-27632 dihydrochloride for at least two passages prior to the screen. The established cell line HOP-62 was cultured in RPMI 1640 medium, HEPES (Invitrogen, cat. 22400105) with 10% defined fetal bovine serum (HyClone Laboratories Inc., cat. SH30070.03) and 2 mM L-glutamine (Invitrogen, cat. 25030081). The pooled donor HUVEC were cultured in endothelial cell growth medium 2 (PromoCell, Heidelberg, Germany, cat. C-22011) and the hMSC were cultured in mesenchymal stem cell growth medium 2 (PromoCell, cat. C-28009). For all experiments, HUVEC and hMSC were used at passages </=5, while the malignant cell lines were used at passages </=15. […]
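Throughout, for viability, T/C: viability read after seven days of compound exposure; 100% = DMSO vehicle-treated spheroids so lower means less viable.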

## CC(C)n1nc(-c2ccc3oc(N)nc3c2)c2c(N)ncnc21 + C=CC(=O)N1CCN(c2nc(=O)n(-c3c(C)ccnc3C(C)C)c3nc(-c4c(O)cccc4F)c(F)cc23)C(C)C1
Second compound 0.1 µM
  IC50: 12.6 nM
Second compound 0.316 µM
  IC50: 17.6 nM
Second compound 1 µM
  IC50: 9.05 nM
Second compound 3.16 µM
  IC50: 4.66 nM
Second compound 10 µM
  IC50: < 0.316 nM
Second compound 0.1 µM, first compound 0.000316 µM
  viability, T/C: 94.8%
Second compound 0.1 µM, first compound 0.001 µM
  viability, T/C: 93.1%
Second compound 0.1 µM, first compound 0.00316 µM
  viability, T/C: 86.1%
Second compound 0.1 µM, first compound 0.01 µM
  viability, T/C: 52.6%
Second compound 0.1 µM, first compound 0.0316 µM
  viability, T/C: 32.7%
Second compound 0.1 µM, first compound 0.1 µM
  viability, T/C: 19.5%
Second compound 0.316 µM, first compound 0.000316 µM
  viability, T/C: 113%
Second compound 0.316 µM, first compound 0.001 µM
  viability, T/C: 103%
Second compound 0.316 µM, first compound 0.00316 µM
  viability, T/C: 87.7%
Second compound 0.316 µM, first compound 0.01 µM
  viability, T/C: 65.6%
Second compound 0.316 µM, first compound 0.0316 µM
  viability, T/C: 34.2%
Second compound 0.316 µM, first compound 0.1 µM
  viability, T/C: 18.9%
Second compound 1 µM, first compound 0.000316 µM
  viability, T/C: 97.5%
Second compound 1 µM, first compound 0.001 µM
  viability, T/C: 107%
Second compound 1 µM, first compound 0.00316 µM
  viability, T/C: 75.8%
Second compound 1 µM, first compound 0.01 µM
  viability, T/C: 48.9%
Second compound 1 µM, first compound 0.0316 µM
  viability, T/C: 27.3%
Second compound 1 µM, first compound 0.1 µM
  viability, T/C: 20.1%
Second compound 3.16 µM, first compound 0.000316 µM
  viability, T/C: 98%
Second compound 3.16 µM, first compound 0.001 µM
  viability, T/C: 89.4%
Second compound 3.16 µM, first compound 0.00316 µM
  viability, T/C: 58.6%
Second compound 3.16 µM, first compound 0.01 µM
  viability, T/C: 31.1%
Second compound 3.16 µM, first compound 0.0316 µM
  viability, T/C: 20.1%
Second compound 3.16 µM, first compound 0.1 µM
  viability, T/C: 13.9%
Second compound 10 µM, first compound 0.000316 µM
  viability, T/C: 45.9%
Second compound 10 µM, first compound 0.001 µM
  viability, T/C: 44.6%
Second compound 10 µM, first compound 0.00316 µM
  viability, T/C: 34.7%
Second compound 10 µM, first compound 0.01 µM
  viability, T/C: 16.9%
Second compound 10 µM, first compound 0.0316 µM
  viability, T/C: 14.7%
Second compound 10 µM, first compound 0.1 µM
  viability, T/C: 7.97%
